From patent publication US20250082565A1, “ANTIOXIDANT COSMETIC COMPLEX, COSMETIC COMPOSITION, USE AND METHOD FOR COSMETIC TREATMENT” (Natura Cosméticos S.A., priority 2023, published 2025) come the findings set out here.

Structures are written as SMILES.

Experiment [1] is described as follows: Suppression of triplet species (laser flash photolysis). The note with it: Stern-Volmer model; 10 μM methylene blue, excitation 660 nm, argon purged; individual actives. On the procedure:
(§1) The excited state suppression ability was assessed by measuring the transient absorption of triplet states using flash photolysis and by singlet oxygen emission in the near infrared.
Triplet suppression: The SHB Laser Flash Photolysis system was used (FIG. 14). A laser pulse (10 mJ/pulse, 10-20 ns) impinges on the sample providing electronic excitation. To assess the formation and the lifetime of excited states or other reactive intermediates, the change in absorbance prior to and after electronic excitation of the sample is monitored by an optical beam (LED) as a function of time. It monitors the disappearance of the species in the fundamental state or the appearance of the excited or radical species. The laser beam is positioned at 90° to the monitoring beam. Shutters are used in both the excitation and monitoring beams to protect the sample from photolysis. The detector in this technique consists of a combination of filters and diode detector. The diode response is read on a digital oscilloscope (Tektronix 2230), which data is subsequently transferred to the microcomputer. The entire equipment is controlled by a microcomputer and the time resolution of the instrument is of about 50 ns. A Quantel Nd: YAG laser (2 w, 3 w Rainbow, pulsed at 3 ns, 80.1% power) was used. […] Readings were taken in a 2 mm×10 mm quartz cuvette. […]

The nature of experiment [2]: Singlet oxygen suppression (emission at 1270 nm). To be noted: Stern-Volmer model; phosphorescence at 1270 nm in ethanol. On the procedure: as §1
Singlet oxygen suppression: The detector (PMT Hamamatsu R5509—model PC176TSCE005) was cooled to −80° C. and set to 1500 V and the signals were acquired using a proprietary software from SHB Analytics GmbH (Germany). Excitation was performed by a Quantel Brilliant laser (2 w-3 w-Rainbow). Emission from the sample is filtered so that irradiation in the range of from […] is detected. A microcomputer is connected to the system and analysis of the transients is carried out using an ultra-fast acquisition plate. It is important to remember that luminescence emission at 1270 nm is characteristic of singlet oxygen, being the safest method of detecting the presence and reactivity of this species. […]
To assess the actives' ability of suppressing singlet oxygen (1O2), the near-infrared emission (1270 nm) was measured, which is characteristic of 1O2 and a golden standard for this detection. […]
The detector (PMT Hamamatsu-model H10330-45) was cooled to −80° C. and set to −800 V and the signals were acquired using a proprietary software from SHB Analytics GmbH (Germany). […] Sample emission is detected in the range of 1270±20 nm. […]

For `CC1=C(/C=C/C(C)=C/C=C/C(C)=C/C=C/C=C(C)/C=C/C=C(C)/C=C/C2=C(C)CCCC2(C)C)C(C)(C)CCC1` [Beta-carotene], the “KSt (triplet suppression constant)” value in experiment [1] is 0.16 ± 0.05 μg^−1μL. Also, the “KSV (singlet oxygen suppression constant)” value in experiment [2] is listed as 30.5 × 10^4 mg^−1mLs^−1.
